20 compounds from US7855290B2, “Pyridine derivatives and pyrimidine derivatives (3)” (Eisai R&D Management Co., Ltd., priority 2005, dated 2010) can be followed below.

Molecules are shown by their SMILES.

T1 sequence (P08581 25-1390): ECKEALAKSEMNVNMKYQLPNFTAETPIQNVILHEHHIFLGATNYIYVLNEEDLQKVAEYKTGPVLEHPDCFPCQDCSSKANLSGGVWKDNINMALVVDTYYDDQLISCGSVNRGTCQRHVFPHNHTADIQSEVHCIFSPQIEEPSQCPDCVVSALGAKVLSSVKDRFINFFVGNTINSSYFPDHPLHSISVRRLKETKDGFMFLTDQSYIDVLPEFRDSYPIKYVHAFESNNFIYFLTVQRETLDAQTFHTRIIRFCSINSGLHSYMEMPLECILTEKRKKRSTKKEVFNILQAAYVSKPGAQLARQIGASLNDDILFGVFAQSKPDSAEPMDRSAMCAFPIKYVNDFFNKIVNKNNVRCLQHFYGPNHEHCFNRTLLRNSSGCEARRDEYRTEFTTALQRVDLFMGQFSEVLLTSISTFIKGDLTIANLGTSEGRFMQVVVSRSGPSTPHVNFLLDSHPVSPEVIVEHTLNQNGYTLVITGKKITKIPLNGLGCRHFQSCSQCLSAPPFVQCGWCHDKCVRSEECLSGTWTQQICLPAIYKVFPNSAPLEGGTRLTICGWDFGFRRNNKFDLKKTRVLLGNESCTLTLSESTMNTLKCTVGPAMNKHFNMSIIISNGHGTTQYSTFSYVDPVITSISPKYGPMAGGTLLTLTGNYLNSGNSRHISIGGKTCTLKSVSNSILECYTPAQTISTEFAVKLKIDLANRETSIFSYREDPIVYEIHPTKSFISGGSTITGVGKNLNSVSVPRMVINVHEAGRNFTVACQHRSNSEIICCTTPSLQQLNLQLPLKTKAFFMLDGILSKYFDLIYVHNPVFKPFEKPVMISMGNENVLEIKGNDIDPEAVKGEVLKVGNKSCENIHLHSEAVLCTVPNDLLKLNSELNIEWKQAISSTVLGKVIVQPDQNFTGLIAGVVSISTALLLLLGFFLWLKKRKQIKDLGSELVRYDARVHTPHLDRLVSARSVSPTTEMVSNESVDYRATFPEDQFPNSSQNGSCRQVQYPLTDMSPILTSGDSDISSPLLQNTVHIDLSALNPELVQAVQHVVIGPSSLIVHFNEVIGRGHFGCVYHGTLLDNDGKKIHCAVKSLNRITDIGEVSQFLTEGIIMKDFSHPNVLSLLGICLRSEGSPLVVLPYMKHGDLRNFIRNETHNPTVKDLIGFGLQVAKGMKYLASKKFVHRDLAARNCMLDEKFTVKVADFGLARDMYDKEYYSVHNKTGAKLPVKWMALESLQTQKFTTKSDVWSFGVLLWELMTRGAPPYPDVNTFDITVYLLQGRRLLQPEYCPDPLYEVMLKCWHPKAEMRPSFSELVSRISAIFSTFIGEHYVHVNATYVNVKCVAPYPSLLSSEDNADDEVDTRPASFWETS

This assay has as its target T1, HGFR (Homo sapiens, UniProt P08581).
T1 construct: endogenous in cells; host or cells: MKN-45 human gastric cancer cells
Kind of assay: Inhibitory activity against the HGFR autophosphorylation using ELISA (MKN-45 cells). Particulars: 1 hr with test substance. The assay is classed as cell-based. On the procedure:
Human gastric cancer cells (MKN-45) were suspended in a 1% FBS-containing RPMI1640 medium (purchased from Sigma). The cell suspension (1×10^5 cells/ml) was put in a 96-well plate for cell culture (purchased from NUNC, Production No. 167008) at 0.1 ml/well, and then cultured in a 5% CO2 incubator (37° C.) overnight. After the culture, from each well was removed the supernatant, followed by adding 0.05 ml of a 1% FBS-containing RPMI1640 medium. Then, the well was supplied with 0.05 ml of the test substance dissolved in dimethyl sulfoxide (diluted with a 1% FBS-containing RPMI1640 medium), followed by culturing in a 5% CO2 incubator (37° C.) for 1 hr. From each well was removed the supernatant, and each well was washed with 150 μl of PBS, followed by adding 100 μl of a lysis buffer (50 mM Hepes (pH 7.4), 150 mM NaCl, 10% (v/v) glycerol, 1% Triton X-100, 1.5 mM MgCl2, 1 mM EDTA (pH 8.0), 100 mM NaF, 1 mM PMSF, 10 μg/ml Aprotinin, 50 μg/ml Leupeptin, 1 μg/ml Pepstatin A and 1 mM Na3VO4). The plate was shaken at 4° C. for 1 hr to prepare the cell extract.
To a 96-well plate for ELISA (purchased from COSTAR, Production No. 3369) was added 50 μl of 60 mM bicarbonate buffer (pH 9.6) containing 50 μg/ml of an anti-phosphotyrosine antibody (PY20, purchased from Transduction Laboratory, Production No. P-11120). The plate was incubated at 4° C. overnight.
Each well of the plate prepared in 2. was washed three times with 200 μl of PBS, and supplied with 150 μl of 3% BSA/PBS, followed by incubating at room temperature for 2 hrs. Each well was washed three times with 200 μl of PBS, and supplied with 50 μl of the above cell extract, followed by incubating at 4° C. overnight. After the incubation, each well was washed three times with 250 μl of a washing solution (0.1% BSA, 20 mM Tris-HCl (pH 7.6), 137 mM NaCl, and 0.05% Tween-20), and supplied with 70 μl of anti-HGFR antibody (h-Met(C-12), purchased from Santa Cruz, Production No. sc-10) 2,000-fold diluted with a reaction solution (1% BSA, 20 mM Tris-HCl (pH 7.6), 137 mM NaCl and 0.05% Tween-20), followed by incubating at room temperature for 1 hr. The well was washed three times with 250 μl of the washing solution, and supplied with 70 μl of peroxidase-labelled anti-rabbit IgG antibody (purchased from Cell Signaling, Production No. 7074) 2,000-fold diluted with the reaction solution, followed by incubating at room temperature for 1 hr. Each well was washed three times with 250 μl of the washing solution, and supplied with 70 μl of TMB Membrane Peroxidase Substrate (purchased from Funakoshi, Production No. 50-5077-03), followed by incubating at room temperature for 10 min. Each well was supplied with 70 μl of 1 M phosphoric acid, and using the Plate Reader MTP-500 (Corona Electric), the absorbance of the well was instantly determined at a measurement wavelength of 450 nm. While defining the absorbance of a well supplied with the cell extract having no test substance as 100% HGFR autophosphorylation activity, and the absorbance of a well supplied with 50 μl of the lysis buffer as 0% HGFR autophosphorylation activity, the HGFR autophosphorylation activity (%) was calculated for each well.
Take `O=C(Nc1cc(Oc2ccc(NC(=O)C3(C(=O)Nc4ccc(F)cc4)CC3)c(F)c2)ccn1)N1CCC(N2CCCC2)CC1` [Example 4, N-(4-Fluorophenyl)-N′-{2-fluoro-4-[(2-{[(4-pyrrolidin-1-ylpiperidin-1-yl)carbonyl]amino}pyridin-4-yl)oxy]phenyl}cyclopropane-1,1-dicarboxamide]: the IC50 came to 0.014 µM.

For the compound `O=C(Nc1cc(Oc2ccc(NC(=O)C3(C(=O)Nc4ccc(F)cc4)CC3)cc2F)ccn1)N1CCC(N2CCCC2)CC1` [Example 10, N-(4-Fluorophenyl)-N′-{3-fluoro-4-[(2-{[(4-pyrrolidin-1-ylpiperidin-1-yl)carbonyl]amino}pyridin-4-yl)oxy]phenyl}cyclopropane-1,1-dicarboxamide], the half-inhibitory concentration (IC50) amounted to 0.021 µM. This IC50 is about 1.5-fold higher than that of the compound before.

Take `O=C(Nc1cc(Oc2ccc(NC(=O)C3(C(=O)Nc4ccc(F)cc4)CC3)cc2)ccn1)N1CCC(N2CCC2)CC1` [Example 13, N-{4-[(2-{[(4-Azetidin-1-ylpiperidin-1-yl)carbonyl]amino}pyridin-4-yl)oxy]phenyl}-N′-(4-fluorophenyl)cyclopropane-1,1-dicarboxamide]: the 50% inhibitory concentration (IC50) turned out to be 0.037 µM.

Compound `CN1CCC(N2CCN(C(=O)Nc3cc(Oc4ccc(NC(=O)C5(C(=O)Nc6ccc(F)cc6)CC5)c(F)c4)ccn3)CC2)CC1` [Example 16, N-(2-Fluoro-4-{[2-({[4-(1-methylpiperidin-4-yl)piperazin-1-yl]carbonyl}amino)pyridin-4-yl]oxy}phenyl)-N′-(4-fluorophenyl)cyclopropane-1,1-dicarboxamide] came in with a half-maximal inhibitory concentration (IC50) of 0.018 µM. Against the preceding compound, the IC50 is about 2.1-fold lower.

In the case of `CN(C)C1CCN(C(=O)Nc2cc(Oc3ccc(NC(=O)C4(C(=O)Nc5ccc(F)cc5)CC4)c(F)c3)ccn2)CC1` [Example 18, N-(4-{[2-({[4-(Dimethylamino)piperidin-1-yl]carbonyl}amino)pyridin-4-yl]oxy}-2-fluorophenyl)-N′-(4-fluorophenyl)cyclopropane-1,1-dicarboxamide], the half-maximal inhibitory concentration (IC50) was 0.039 µM.

`CN1CCC(N2CCN(C(=O)Nc3cc(Oc4ccc(NC(=O)C5(C(=O)Nc6ccc(F)cc6)CC5)cc4F)ccn3)CC2)CC1` [Example 19, N-(3-Fluoro-4-{[2-({[4-(1-methylpiperidin-4-yl)piperazin-1-yl]carbonyl}amino)pyridin-4-yl]oxy}phenyl)-N′-(4-fluorophenyl)cyclopropane-1,1-dicarboxamide]: the IC50 is 0.023 µM. This IC50 lies about 1.7-fold lower than the previous one.

With `CN1CCN(C2CCN(C(=O)Nc3cc(Oc4ccc(NC(=O)C5(C(=O)Nc6ccc(F)cc6)CC5)cc4F)ccn3)CC2)CC1` [Example 20, N-(3-Fluoro-4-{[2-({[-4-(4-methylpiperazin-1-yl)piperidin-1-yl]-carbonyl}amino)pyridin-4-yl]oxy}phenyl)-N′-(4-fluorophenyl)cyclopropane-1,1-dicarboxamide], inhibition was half-maximal at 0.022 µM (IC50).

Regarding `CN1CC(N2CCN(C(=O)Nc3cc(Oc4ccc(NC(=O)C5(C(=O)Nc6ccc(F)cc6)CC5)cc4F)ccn3)CC2)C1` [Example 22, N-(3-Fluoro-4-{[2-({[4-(1-methylazetidin-3-yl)piperazin-1-yl]carbonyl}amino)pyridin-4-yl]oxy}phenyl)-N′-(4-fluorophenyl)cyclopropane-1,1-dicarboxamide], the half-inhibitory concentration (IC50) turned out to be 0.021 µM.

Compound `CN(C)C1CCN(C(=O)Nc2cc(Oc3ccc(NC(=O)C4(C(=O)Nc5ccc(F)cc5)CC4)cc3F)ccn2)CC1` [Example 23, N-(4-{[2-({[4-(Dimethylamino)piperidin-1-yl]carbonyl}amino)pyridin-4-yl]oxy}-3-fluorophenyl)-N′-(4-fluorophenyl)cyclopropane-1,1-dicarboxamide] returned an IC50 of 0.017 µM. The IC50 values of the last two compounds are within 1.5-fold of each other.

`CN(C)[C@H]1CCN(C(=O)Nc2cc(Oc3ccc(NC(=O)C4(C(=O)Nc5ccc(F)cc5)CC4)cc3F)ccn2)C1` [Example 24, N-(4-{[2-({[(3S)-3-(Dimethylamino)pyrrolidin-1-yl]carbonyl}amino)pyridin-4-yl]oxy}-3-fluorophenyl)-N′-(4-fluorophenyl)cyclopropane-1,1-dicarboxamide] had an IC50 of 0.027 µM.

As for `CN(C)CCN1CCC(N(C)C(=O)Nc2cc(Oc3ccc(NC(=O)C4(C(=O)Nc5ccc(F)cc5)CC4)c(F)c3)ccn2)CC1` [Example 25, N-(4-{[2-({[{1-[2-(Dimethylamino)ethyl]piperidin-4-yl}(methyl)amino]carbonyl}amino)pyridin-4-yl]oxy}-2-fluorophenyl)-N′-(4-fluorophenyl)cyclopropane-1,1-dicarboxamide], half-maximal inhibition (IC50) was put at 0.0046 µM.

Consider `O=C(Nc1cc(Oc2ccc(NC(=O)C3(C(=O)Nc4ccc(F)cc4)CC3)cc2F)ccn1)N1CCC(CN2CCC2)CC1` [Example 26, N-(4-{[2-({[4-(Azetidin-1-ylmethyl)piperidin-1-yl]carbonyl}amino)pyridin-4-yl]oxy}-3-fluorophenyl)-N′-(4-fluorophenyl)cyclopropane-1,1-dicarboxamide], for which the IC50 amounted to 0.0084 µM.

Consider `O=C(Nc1cc(Oc2ccc(NC(=O)C3(C(=O)Nc4ccc(F)cc4)CC3)cc2)ccn1)N1CCC(CN2CCC2)CC1` [Example 27, N-(4-{[2-({f [4-(Azetidin-1-ylmethyl)piperidin-1-yl]carbonyl}amino)pyridin-4-yl]oxy}phenyl)-N′-(4-fluorophenyl)cyclopropane-1,1-dicarboxamide], for which the IC50 amounted to 0.032 µM.

Turning to `O=C(Nc1cc(Oc2ccc(NC(=O)C3(C(=O)Nc4ccc(F)cc4)CC3)cc2)ccn1)N1CCN(CCN2CCC2)CC1` [Example 28, N-(4-{[2-({[4-(2-Azetidin-1-ylethyl)piperazin-1-yl]carbonyl}amino)pyridin-4-yl]oxy}phenyl)-N′-(4-fluorophenyl)cyclopropane-1,1-dicarboxamide], the IC50 was determined as 0.043 µM.

`O=C(Nc1cc(Oc2ccc(NC(=O)C3(C(=O)Nc4ccc(F)cc4)CC3)cc2)ccn1)N1CCC(CN2CCCC2)CC1` [Example 29, N-(4-Fluorophenyl)-N′-(4-{[2-({[4-(pyrrolidin-1-ylmethyl)piperidin-1-yl]-carbonyl}amino)pyridin-4-yl]oxy}phenyl)cyclopropane-1,1-dicarboxamide] gave an IC50 of 0.03 µM.

Take `CN(C)CCN1CCN(C(=O)Nc2cc(Oc3ccc(NC(=O)C4(C(=O)Nc5ccc(F)cc5)CC4)cc3)ccn2)CC1` [Example 30, N-[4-({2-[({4-[2-(Dimethylamino)ethyl]piperazin-1-yl}carbonyl)amino]pyridin-4-yl}oxy)phenyl]-N′-(4-fluorophenyl)cyclopropane-1,1-dicarboxamide]: the IC50 was 0.012 µM. Against the preceding compound, the IC50 is about 2.5-fold lower.

The compound `CN1CCC(N2CCN(C(=O)Nc3cc(Oc4ccc(NC(=O)C5(C(=O)Nc6ccc(F)cc6)CC5)cc4)ccn3)CC2)CC1` [Example 31, N-(4-Fluorophenyl)-N′-(4-{[2-({[4-(1-methylpiperidin-4-yl)piperazin-1-yl]carbonyl}amino)pyridin-4-yl]oxy}phenyl)cyclopropane-1,1-dicarboxamide] came in with a concentration for half-maximal inhibition (IC50) of 0.03 µM. This IC50 is about 2.5-fold higher than that of the compound before.

The compound `CN1CCN(C2CCN(C(=O)Nc3cc(Oc4ccc(NC(=O)C5(C(=O)Nc6ccc(F)cc6)CC5)cc4)ccn3)CC2)CC1` [Example 32, N-(4-Fluorophenyl)-N′-(4-{[2-({[4-(4-methylpiperazin-1-yl)piperidin-1-yl]carbonyl}amino)pyridin-4-yl]oxy}phenyl)cyclopropane-1,1-dicarboxamide] showed an IC50 of 0.015 µM. Compared with the last compound, the IC50 is about 2-fold lower.

On to `CN1CCC(N(C)C(=O)Nc2cc(Oc3ccc(NC(=O)C4(C(=O)Nc5ccc(F)cc5)CC4)cc3F)ncn2)CC1` [Example 33, N-(3-Fluoro-4-{[6-({[methyl(1-methylpiperidin-4-yl)amino]carbonyl}amino)pyrimidin-4-yl]oxy}phenyl)-N′-(4-fluorophenyl)cyclopropane-1,1-dicarboxamide], for which the IC50 was determined as 0.025 µM.

`O=C(Nc1cc(Oc2ccc(NC(=O)C3(C(=O)Nc4ccc(F)cc4)CC3)cc2F)ncn1)N1CCC(N2CCC2)CC1` [Example 34, N-{4-[(6-{[(4-Azetidin-1-ylpiperidin-1-yl)carbonyl]amino}pyrimidin-4-yl)oxy]-3-fluorophenyl}-N′-(4-fluorophenyl)cyclopropane-1,1-dicarboxamide] returned a half-maximal inhibitory concentration (IC50) of 0.081 µM.
